Patent US20050227915A1, “Methods and reagents for treating neurodegenerative diseases and motor deficit disorders” (priority 2001, published 2005)
“Also recorded” adds a separate entry of the source. Where two headings read alike, the source gives them in different places.

Key:
deacetylase = details: cited from earlier work
[1] = tested on: flies expressing Httex1p Q93; assay: Pseudopupil analysis of rhabdomeres in flies expressing Httex1p Q93; type: in vivo, Drosophila
Excerpt: (§1) Drosophila stocks and crosses. Expression of polyglutamine-containing peptides is driven by the bipartite expression system activator sequence (UAS)-GAL4 in transgenic flies (Marsh, J. L. et al. (2000) Hum. Mol. Gen. 9, 13-25).
Injection of plasmids expressing Httex1p with 20 or 93 glutamines produced nine and ten lines, respectively. Two lines with the most severe neuronal phenotype (P463 and P465) were chosen for the experiments described herein. Polyglutamine stocks are w;P(w^+mC=UAS-Q93httexon1)^4F1 and w;P(w^+mC=UAS-Q48+myc/flag)^20. Constructs under the control of a yeast UAS were crossed to flies expressing the yeast GAL4 transcriptional activator (Brand, A. and Perrimon, N., supra) driven by the neuron-specific promoter elav (chromosome 2 driver for Q48 lines, Luo, L. et al. (1994) Genes Dev. 8, 1787-1802, and X-chromosome driver for Htt exon 1 lines, Lin, D. M. & Goodman, C. S. (1994) Neuron 13, 507-523) that is expressed in all neurons from embryogenesis onwards: w;P(w^+mC;w+; elav-GAL4)/CyO, P(w^+mC=Act-GFP)JMR1CyO actin-GFP or w;P(w^+mW.hs=GawB)elavC155. […]
Pseudopupil analysis and transgene expression. […] Eyes were analyzed with a Nikon EFD-3/Optiphot-2 scope using a 50× objective, and photographed with a Spot camera. At least 200 ommatidia were scored for each condition. […]

flies expressing Q48 = assay: Pseudopupil analysis of rhabdomeres in flies expressing Q48 polyglutamine peptides; type: in vivo, Drosophila; details: for progressive photoreceptor neuron degeneration: feeding initiated only in adult flies; for distribution of rhabdomeres by day 6: Q48 flies fed inhibitor, data not shown; for neurodegenerative effect of Q48 (photographs of ommatidia): in vivo
Excerpt: as §1
Injection of plasmids expressing Httex1p with 20 or 93 glutamines produced nine and ten lines, respectively. Two lines with the most severe neuronal phenotype (P463 and P465) were chosen for the experiments described herein. Polyglutamine stocks are w;P(w^+mC=UAS-Q93httexon1)^4F1 and w;P(w^+mC=UAS-Q48+myc/flag)^20. Constructs under the control of a yeast UAS were crossed to flies expressing the yeast GAL4 transcriptional activator (Brand, A. and Perrimon, N., supra) driven by the neuron-specific promoter elav (chromosome 2 driver for Q48 lines, Luo, L. et al. (1994) Genes Dev. 8, 1787-1802, and X-chromosome driver for Htt exon 1 lines, Lin, D. M. & Goodman, C. S. (1994) Neuron 13, 507-523) that is expressed in all neurons from embryogenesis onwards: w;P(w^+mC;w+; elav-GAL4)/CyO, P(w^+mC=Act-GFP)JMR1CyO actin-GFP or w;P(w^+mW.hs=GawB)elavC155.
For testing the effect of Sin3A on polyglutamine phenotypes, we crossed w;P(w^+mC=UAS-Q93httexon1)^4F1 virgins to w;P{w^+mCwPw;elav-GAL4)/Y;Sin3A^08269/Bc Gla males.
Pseudopupil analysis and transgene expression. Pseudopupil analysis allows visualization of the arrangement of rhabdomeres in the ommatidia of the compound eye (Franceschini, N. (1972) in Information processing in the visual systems of arthropods, ed. Wehner, R., pp 75-82). Adult flies were decapitated, one eye was dipped in a drop of nail polish and the head was mounted on a microscope slide. Eyes were analyzed with a Nikon EFD-3/Optiphot-2 scope using a 50× objective, and photographed with a Spot camera. At least 200 ommatidia were scored for each condition. For Western analysis of transgene expression, 20 larvae from each sample were ground in a buffer containing 0.1 M phosphate at pH7.1, 0.3 M sucrose, 0.02 mM phenylthiourea, protease cocktail and 0.1 mM PMSF, and 200 μg of total lysate were loaded per lane.

[2] = tested on: PC12 cells induced to express Httex1p (103QP); assay: Histone acetylation analysis in PC12 cell extract (Western blot); type: cell-based; details: PC12 F103QP-EGFP cells, uninduced and induced, 5 mM sodium butyrate for last 24 h
Procedure: Histone acetylation analysis in PC12 cell extract. PC12 cells, stably transfected with ecdysone-inducible (Invitrogen) F103QP-EGFP were plated, induced with 5 μM ponasterone (Invitrogen) for 48 h, and treated for the last 24 h with 5 mM sodium butyrate. Controls included uninduced and/or non-butyrate-treated cells. Cells were lysed in 1×HAT buffer with 50 mM NaCl, 0.3% NP-40, and a protease-inhibitor cocktail on ice for 10 min. A 50 μg aliquot of whole cell extract was analyzed by Western blot.
Separate, independently-derived, ecdysone-inducible PC12 cell lines, denoted PC12/pBWN:Htt ex1Q103-EGFP cells and PC12/pWN:Httex1Q25-EGFP (E. S. Schweitzer, UCLA), were also analyzed. These clonal cells contain a modified exon 1 of Htt inserted into an expression vector containing the Bombyx ecdysone-regulated element (described in Suhr, S. T., et al. (1998) Proc. Natl. Acad. Sci. U.S.A. 95, 7999-8004).
Twenty-five micrograms of whole cell extracts from PC12 cells stably transfected with plasmids encoding inducible 25QP-EGFP and 103QP-EGFP was analyzed for […]. Control cells (uninduced) and cells induced with 1 μM tebufenizide for 12 h were analyzed by Western blots. Anti-acetylated histone H4, anti-histone H3 and anti-acetylated histone H3 (all from Upstate Biotechnology) were used to determine levels of acetylated histones H3 and H4 relative to levels of total H3.

R6/2 mice = assay: Rotarod analysis of motor impairment; type: in vivo
Procedure: (§2) Animals. […] Control mice were wild-type female littermates.
(§3) Behavioral analysis: Rotarod impairment was assessed on a Ugo Basile 7650 accelerating Rotarod (Linton Instrumentation, UK), modified as previously described (Hockly et al, submitted). Animals (R6/2: n=13, wild-type: n=12 per treatment group) were tested at 4 weeks of age to establish their baseline performance and then at 8, 10 and 12 weeks of age. Grip strength was measured once per fortnight (Hockly et al. submitted) and animals weighed weekly to the nearest 0.1 g. Statistical analysis of grip strength used ANOVA on the mean grip strength. Rotarod data were analyzed at each time point using repeated measures in a linear mixed effects model (in S-plus).

[3] = tested on: huntingtin aggregate load; assay: Organotypic hippocampal slice culture assay of polyQ aggregation; type: cell-based, R6/2 mice
Procedure: The present inventors established that HOP-[…]-CD has no effect on polyQ aggregation over a 5-log concentration range (data not shown) and therefore the HOP-[…]-CD concentration required to complex 250 μM was used as the vehicle. The medium was changed twice weekly and slices were fixed at weekly intervals from 2 weeks in culture. The huntingtin aggregate load was assessed by quantitative indirect immunofluorescence and results were analyzed using the general linear model ANOVA with false discovery rate correction (Hochberg, Y. & Benjamini, Y. (1990) Stat Med 9: 811-8).
We have developed this technique to bridge the gap between wholly in vitro aggregation assays and preclinical trials and allow us to quantify aggregate formation in a system in which aggregates form at the same rate and in the same sequence as they do in vivo.

[4] = Procedure: Drug Formulation. […] This solution was administered to mice in place of drinking water and replaced weekly.
Animals. Affected mice were hemizygous R6/2 females (Mangiarini, L., et al. (1996) Cell 87: 493-506) (available from the Induced Mutant Resource, Jackson Laboratory, Bar Harbor Me., code B6CBA-TgN (HDexon1)62), bred and reared in our colony by backcrossing R6/2 males to C57BL/6×CBA F1 females. Transgenic animals were identified prior to weaning by PCR of tail-tip DNA and CAG repeat size was determined (Mangiarini, L., et al. (1997) Nat Genet 15: 197-200). Control mice were wild-type female littermates. Mice were weaned into their treatment groups at 4 weeks of age. […] From age 12 weeks, all animals were additionally given mash consisting of powdered chow mixed with the drug solution as given in the drinking bottle. The mice were subject to a 12 hour light (08:00-20:00), 12 hour dark (20:00-08:00) cycle. Living conditions and baseline characteristics of study groupings were standardized as previously described (Hockly et al. submitted).
Assuming that a 20 g mouse drinks 3 ml/day, this corresponds to a dose of 1.33 g/l.
Drug administration commenced at 30 days of age after an initial testing week, which was used to assort the mice into well-matched treatment groups (FIG. 28a).

[5] = Body weight in SAHA preclinical trial; type: in vivo, mice
Procedure: as §2, §3

## O=C(O)CCCc1ccccc1 [phenylbutyrate, Phenylbutyrate]
deacetylase
  Effective Inhibitory Concentration Range: mM

## O=C(/C=C/c1cccc(C(=O)NO)c1)NO [m-carboxy cinnamic acid bis-hydroxamic acid]
deacetylase
  Effective Inhibitory Concentration Range: nM-μM

## C=C[C@@H](O)[C@@H]1O[C@H]1/C=C/[C@@H]1O[C@H]1[C@@H](C)O [depudecin, Depudecin]
deacetylase
  Effective Inhibitory Concentration Range: μM

## CN(C)c1ccc(C(=O)NCCCCCCCC(=O)NO)cc1 [DBCH, dimethylaminobenzamidylcaprylic hydroxamate]
deacetylase
  Effective Inhibitory Concentration Range: nM-μM

## CCCC(=O)O [butyrate, Butyric acid]
[1]; flies fed 100 mM butyrate
  number of rhabdomeres per ommatidium at 6 days after eclosion: markedly improved
[1]; larvae reared on inhibitor-containing food
  level of degeneration (loss of rhabdomeres): reduces the level of degeneration observed
deacetylase
  Effective Inhibitory Concentration Range: mM
Flies expressing Q48; 100 mM butyrate
  progressive photoreceptor neuron degeneration: still prevented; also recorded: arrested
Flies expressing Q48
  distribution of rhabdomeres by day 6: same distribution of rhadomeres by day 6 as 1-day-old flies
  neurodegenerative effect of Q48 (photographs of ommatidia): disrupts the neurodegenerative effect of Q48
[2]
  levels of histone H4 acetylation: can be reversed by butyrate treatment
[2]; listed as sodium butyrate
  levels of histone H4 acetylation: increased

## O=C(CCCCCN1C(=O)c2cccc3cccc(c23)C1=O)NO [scriptaid, Scriptaid]
deacetylase
  Effective Inhibitory Concentration Range: nM-μM

## O=C(CCCCCCC(=O)Nc1cccnc1)NO [pyroxamide]
deacetylase
  Effective Inhibitory Concentration Range: nM-μM

## O=C(CCCCCCC(=O)Nc1ccccc1)NO [SAHA, Suberoylanilide hydroxamic acid]
R6/2 mice; R6/2, 0.67 g/l SAHA in HOP-[…]-CD in drinking water
  Rotarod performance / motor impairment versus placebo: strong and consistent improvement; also recorded: dramatically improves Rotarod performance; also recorded: highly significant improvement; also recorded: dramatically improve the motor impairment
R6/2 mice; R6/2, 0.67 g/l SAHA, 8 weeks of age
  Rotarod latency to fall: 207 s
R6/2 mice; R6/2, 0.67 g/l SAHA, 10 weeks of age
  Rotarod latency to fall: 187 s
R6/2 mice; R6/2, 0.67 g/l SAHA, 12 weeks of age
  Rotarod latency to fall: 144 s
R6/2 mice; R6/2, 0.67 g/l SAHA, 12 weeks versus placebo at 8 weeks
  delay in the decline in Rotarod performance: delay by as much as one month
R6/2 mice; wild-type mice, 0.67 g/l SAHA
  Rotarod performance versus placebo: no significant difference
deacetylase
  effective concentration: ~2.5 µM
Flies expressing Q48; 2 μM SAHA
  progressive photoreceptor neuron degeneration: still prevented; also recorded: arrested
Flies expressing Q48
  distribution of rhabdomeres by day 6: same distribution of rhadomeres by day 6 as 1-day-old flies
  neurodegenerative effect of Q48 (photographs of ommatidia): disrupts the neurodegenerative effect of Q48
[3]; 0.025 μM, 0.25 μM or 2.5 μM SAHA in HOP-[…]-CD, 3 and 4 weeks
  aggregate load versus vehicle control: no difference; also recorded: no effect
[3]; 25 μM and 250 μM
  toxicity to slice cultures: toxic
[4]; 0.67 g/l, R6/2 and wild-type
  deaths before termination of the experiments at 13 weeks: no R6/2 mice or wild-type mice died
[4]; 1.33 g/1, WT and R6/2, oral, 3 weeks
  OUTCOME: no adverse symptoms
[4]; 1.33 g/l from 30 days of age, R6/2
  mice that died at around 6 weeks of age: 2/13
[4]; 1.33 g/l from 30 days of age, after 2 weeks, wild-type and R6/2, data not shown
  weight less than mice on the corresponding placebo: more than 20%
[4]; 1.33 g/l from 30 days of age, wild-type
  mice that died at around 6 weeks of age: 2/12
[4]; DE to 2 g/1, R6/2, oral, 1 week
  OUTCOME: weight loss and one mouse (out of 4) died within one week
[4]; DE to 2.67 g/1+, WT, oral, 3 weeks
  OUTCOME: dramatic weight loss
[4]; administration initiated at 30 days, doses […]1.33 g/l, wild-type and R6/2
  toxicity: toxic
[5]; R6/2, 0.67 g/l SAHA
  failure of R6/2 mice to gain weight: did not prevent; also recorded: did not ameliorate
[5]; both wild-type and R6/2, 13 weeks, 0.67 g/l SAHA
  weight deficit compared to appropriate placebo group: ~18%
[5]; wild-type and R6/2, 0.67 g/l SAHA
  weight gain compared to littermates on placebo: failed to gain weight to the same extent; also recorded: failing to gain weight at the same rate as placebo-treated mice

## O=C(CCCCCCC(=O)NO)NO [suberic bis-hydroxamic acid]
deacetylase
  Effective Inhibitory Concentration Range: nM-μM

## Nc1ccccc1NC(=O)c1ccc(CNC(=O)OCc2cccnc2)cc1 [benzamide (MS-27-275), MS-275]
deacetylase
  Effective Inhibitory Concentration Range: μM

## C/C=C1\NC(=O)[C@H]2CSSCC/C=C/[C@H](CC(=O)N[C@H](C(C)C)C(=O)N2)OC(=O)[C@H](C(C)C)NC1=O [depsipeptide, Depsipeptide]
deacetylase
  Effective Inhibitory Concentration Range: nM-μM

## Oxamflatin
deacetylase
  Effective Inhibitory Concentration Range: μM
